{"source": "patent US11970494B2", "about": "“6-heteroaryloxy benzimidazoles and azabenzimidazoles as JAK2 inhibitors” (Ajax Therapeutics, Inc., priority 2021, dated 2024)", "data": [{"target": "T1, JAK2 (JH1 domain-catalytic, Y1007F,Y1008F) kinase (Homo sapiens, UniProt O60674, Y1007F/Y1008F)", "T1 construct": "made in house; host or cells: transiently transfected HEK293 cells", "T1 sequence (O60674 849-1124 Y1007F/Y1008F limits assumed)": "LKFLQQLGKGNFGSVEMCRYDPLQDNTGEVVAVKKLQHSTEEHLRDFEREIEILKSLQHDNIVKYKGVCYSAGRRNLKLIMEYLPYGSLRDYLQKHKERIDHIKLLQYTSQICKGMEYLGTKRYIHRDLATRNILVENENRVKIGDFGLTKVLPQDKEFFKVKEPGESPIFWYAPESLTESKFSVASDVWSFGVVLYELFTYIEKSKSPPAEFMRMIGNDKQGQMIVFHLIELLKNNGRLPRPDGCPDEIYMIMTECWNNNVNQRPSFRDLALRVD", "test": "JAK2 Binding Assay (JAK2 JH1 Domain Binding Assay)", "conditions": "JAK2 JH1 domain binding, qPCR detection; read-out: JAK2 Kd", "units": {"Kd": "µM"}, "values": [{"smiles": "Cn1cc(C(F)(F)F)cc(Nc2nc3ncc(Oc4ccnc(NC(=O)C[C@@H]5CCCCO5)c4)c(C#N)c3n2C)c1=O", "note": "(single isomer, unassigned) [Example I-74-a]", "Kd": "< 0.01"}, {"smiles": "CN1CCO[C@H](CC(=O)Nc2cc(Oc3cnc4nc(Nc5cc(C(F)(F)F)cn(C)c5=O)n(C)c4c3Cl)ccn2)C1", "note": "(single isomer, unassigned) [Example I-78-a]", "Kd": "< 0.01"}, {"smiles": "CN1CCO[C@@H](CC(=O)Nc2cc(Oc3cnc4nc(Nc5cc(C(F)(F)F)cn(C)c5=O)n(C)c4c3Cl)ccn2)C1", "note": "(single isomer, unassigned) [Example I-78-b]", "Kd": "< 0.01"}, {"smiles": "CN1CCO[C@H](CC(=O)Nc2cc(Oc3cnc4nc(Nc5cc(C(F)(F)F)cn(C)c5=O)n(C)c4c3C#N)ccn2)C1", "note": "(single isomer, unassigned) [Example I-90-a]", "Kd": "< 0.01"}, {"smiles": "CN1CCO[C@@H](CC(=O)Nc2cc(Oc3cnc4nc(Nc5cc(C(F)(F)F)cn(C)c5=O)n(C)c4c3C#N)ccn2)C1", "note": "(single isomer, unassigned) [Example I-90-b]", "Kd": "< 0.01"}, {"smiles": "CC(=O)Nc1cc(Oc2cnc3nc(Nc4cc([C@H]5CCOC5)nc(C(F)(F)F)c4)n(C)c3c2Cl)ccn1", "note": "(single isomer, unassigned) [Example I-91-a]", "Kd": "< 0.01"}, {"smiles": "CC(=O)Nc1cc(Oc2cnc3nc(Nc4cc([C@@H]5CCOC5)nc(C(F)(F)F)c4)n(C)c3c2Cl)ccn1", "note": "(single isomer, unassigned) [Example I-91-b]", "Kd": "< 0.01"}, {"smiles": "CC(=O)Nc1cc(Oc2cnc3nc(Nc4cc([C@H]5CCOC5)nc(C(F)(F)F)c4)n(C)c3c2C#N)ccn1", "note": "(single isomer, unassigned) [Example I-95-i]", "Kd": "< 0.01"}, {"smiles": "CC(=O)Nc1cc(Oc2cnc3nc(Nc4cc([C@@H]5CCOC5)nc(C(F)(F)F)c4)n(C)c3c2C#N)ccn1", "note": "(single isomer, unassigned) [Example I-95-ii]", "Kd": "< 0.01"}, {"smiles": "CC(=O)Nc1cc(Oc2cnc3nc(Nc4cc([C@H]5CCCN5C)cc(C(F)(F)F)c4)n(C)c3c2Cl)ccn1", "note": "(single isomer, unassigned) [Example I-102-a]", "Kd": "< 0.01"}, {"smiles": "CC(=O)Nc1cc(Oc2cnc3nc(Nc4cc([C@@H]5CCCN5C)cc(C(F)(F)F)c4)n(C)c3c2Cl)ccn1", "note": "(single isomer, unassigned) [Example I-102-b]", "Kd": "< 0.01"}, {"smiles": "CC(=O)Nc1cc(Oc2cnc3nc(Nc4ccc([C@H]5CCCN5C)c(C(F)(F)F)c4)n(C)c3c2Cl)ccn1", "note": "(single isomer, unassigned) [Example I-108-a]", "Kd": "< 0.01"}, {"smiles": "CC(=O)Nc1cc(Oc2cnc3nc(Nc4ccc([C@@H]5CCCN5C)c(C(F)(F)F)c4)n(C)c3c2Cl)ccn1", "note": "(single isomer, unassigned) [Example I-108-b]", "Kd": "< 0.01"}, {"smiles": "CC(=O)Nc1cc(Oc2cnc3nc(Nc4ccc([C@H]5CCCN5C)c(C(F)(F)F)c4)n(C)c3c2C#N)ccn1", "note": "(single isomer, unassigned) [Example I-109-a]", "Kd": "< 0.01"}, {"smiles": "CC(=O)Nc1cc(Oc2cnc3nc(Nc4ccc([C@@H]5CCCN5C)c(C(F)(F)F)c4)n(C)c3c2C#N)ccn1", "note": "(single isomer, unassigned) [Example I-109-b]", "Kd": "< 0.01"}, {"smiles": "CNC(=O)Nc1cc(Oc2cnc3nc(Nc4cc(C(F)(F)F)cn(C)c4=O)n(C)c3c2C#N)ccn1", "note": "[Example I-5, 1-(4-((7-cyano-1-methyl-2-((1-methyl-2-oxo-5-(trifluoromethyl)-1,2-dihydropyridin-3-yl)amino)-1H-imidazo[4,5-b]pyridin-6-yl)oxy)pyridin-2-yl)-3-methylurea]", "Kd": "< 0.01"}, {"smiles": "CN1CCN(C(=O)Nc2cc(Oc3cnc4nc(Nc5cc(C(F)(F)F)cn(C)c5=O)n(C)c4c3C#N)ccn2)CC1", "note": "[Example I-6, N-(4-((7-cyano-1-methyl-2-((1-methyl-2-oxo-5-(trifluoromethyl)-1,2-dihydropyridin-3-yl)amino)-1H-imidazo[4,5-b]pyridin-6-yl)oxy)pyridin-2-yl)-4-methylpiperazine-1-carboxamide]", "Kd": "< 0.01"}, {"smiles": "Cn1cc(C(F)(F)F)cc(Nc2nc3ncc(Oc4ccnc(NC(=O)N5CC(O)C5)c4)c(C#N)c3n2C)c1=O", "note": "[Example I-8, N-(4-((7-cyano-1-methyl-2-((1-methyl-2-oxo-5-(trifluoromethyl)-1,2-dihydropyridin-3-yl)amino)-1H-imidazo[4,5-b]pyridin-6-yl)oxy)pyridin-2-yl)hydroxyazetidine-1-carboxamide]", "Kd": "< 0.01"}, {"smiles": "COC1CN(C(=O)Nc2cc(Oc3cnc4nc(Nc5cc(C(F)(F)F)cn(C)c5=O)n(C)c4c3C#N)ccn2)C1", "note": "[Example I-9, N-(4-((7-cyano-1-methyl-2-((1-methyl-2-oxo-5-(trifluoromethyl)-1,2-dihydropyridin-3-yl)amino)-1H-imidazo[4,5-b]pyridin-6-yl)oxy)pyridin-2-yl)-3-methoxyazetidine-1-carboxamide]", "Kd": "< 0.01"}, {"smiles": "COC(=O)Nc1cc(Oc2cnc3nc(Nc4cc(C(F)(F)F)n(C5CC6(COC6)C5)n4)n(C)c3c2Cl)ccn1", "note": "[Example I-10, Methyl(4-((2-((1-(2-oxaspiro[3.3]heptan-6-yl)-5-(trifluoromethyl)-1H-pyrazol-3-yl)amino)-7-chloro-1-methyl-1H-imidazo[4,5-b]pyridin-6-yl)oxy)pyridin-2-yl)carbamate]", "Kd": "< 0.01"}, {"smiles": "Cn1cc(C(F)(F)F)cc(Nc2nc3ncc(Oc4ccnc(NC(=O)N5CCCC5)c4)c(C#N)c3n2C)c1=O", "note": "[Example I-11, N-(4-((7-cyano-1-methyl-2-((1-methyl-2-oxo-5-(trifluoromethyl)-1,2-dihydropyridin-3-yl)amino)-1H-imidazo[4,5-b]pyridin-6-yl)oxy)pyridin-2-yl)pyrrolidine-1-carboxamide]", "Kd": "< 0.01"}, {"smiles": "COCCOC(=O)Nc1cc(Oc2cnc3nc(Nc4cc(C(F)(F)F)cn(C)c4=O)n(C)c3c2C#N)ccn1", "note": "[Example I-12, 2-methoxyethyl(4-((7-cyano-1-methyl-2-((1-methyl-2-oxo-5-(trifluoromethyl)-1,2-dihydropyridin-3-yl)amino)-1H-imidazo[4,5-b]pyridin-6-yl)oxy)pyridin-2-yl)carbamate]", "Kd": "< 0.01"}, {"smiles": "CO[C@@H]1CCN(C(=O)Nc2cc(Oc3cnc4nc(Nc5cc(C(F)(F)F)cn(C)c5=O)n(C)c4c3C#N)ccn2)C1", "note": "[Example I-13, (R)-N-(4-((7-cyano-1-methyl-2-((1-methyl-2-oxo-5-(trifluoromethyl)-1,2-dihydropyridin-3-yl)amino)-1H-imidazo[4,5-b]pyridin-6-yl)oxy)pyridin-2-yl)methoxypyrrolidine-1-carboxamide]", "Kd": "< 0.01"}, {"smiles": "Cn1cc(C(F)(F)F)cc(Nc2nc3ncc(Oc4ccnc(NC(=O)OC5COC5)c4)c(C#N)c3n2C)c1=O", "note": "[Example I-16, Oxetan-3-yl(4-((7-cyano-1-methyl-2-((1-methyl-2-oxo-5-(trifluoromethyl)-1,2-dihydropyridin-3-yl)amino)-1H-imidazo[4,5-b]pyridin-6-yl)oxy)pyridin-2-yl)carbamate]", "Kd": "< 0.01"}, {"smiles": "Cn1cc(C(F)(F)F)cc(Nc2nc3ncc(Oc4ccnc(NC(=O)O[C@H]5CCOC5)c4)c(C#N)c3n2C)c1=O", "note": "[Example I-17, (S)-Tetrahydrofuran-3-yl(4-((7-cyano-1-methyl-2-((1-methyl-2-oxo-5-(trifluoromethyl)-1,2-dihydropyridin-3-yl)amino)-1H-imidazo[4,5-b]pyridin-6-yl)oxy)pyridin-2-yl)carbamate]", "Kd": "< 0.01"}, {"smiles": "CN(C)CCOC(=O)Nc1cc(Oc2cnc3nc(Nc4cc(C(F)(F)F)cn(C)c4=O)n(C)c3c2Cl)ccn1", "note": "[Example I-19, 2-(Dimethylamino)ethyl(4-((7-chloro-1-methyl-2-((1-methyl-2-oxo-5-(trifluoromethyl)-1,2-dihydropyridin-3-yl)amino)-1H-imidazo[4,5-b]pyridin-6-yl)oxy)pyridin-2-yl)carbamate]", "Kd": "< 0.01"}, {"smiles": "Cn1cc(C(F)(F)F)cc(Nc2nc3ncc(Oc4ccnc(NC(=O)OCCO)c4)c(C#N)c3n2C)c1=O", "note": "[Example I-20, 2-Hydroxyethyl(4-((7-cyano-1-methyl-2-((1-methyl-2-oxo-5-(trifluoromethyl)-1,2-dihydropyridin-3-yl)amino)-1H-imidazo[4,5-b]pyridin-6-yl)oxy)pyridin-2-yl)carbamate]", "Kd": "< 0.01"}, {"smiles": "CN(C)C(=O)Nc1cc(Oc2cnc3nc(Nc4cc5n(n4)CCCC5(F)F)n(C)c3c2C#N)ccn1", "note": "[Example I-21, 3-(4-((7-cyano-2-((4,4-difluoro-4,5,6,7-tetrahydropyrazolo[1,5-a]pyridin-2-yl)amino)-1-methyl-1H-imidazo[4,5-b]pyridin-6-yl)oxy)pyridin-2-yl)-1,1-dimethylurea]", "Kd": "< 0.01"}, {"smiles": "COC(=O)Nc1cc(Oc2cnc3nc(Nc4cc5n(n4)CCCC5(F)F)n(C)c3c2C#N)ccn1", "note": "[Example I-22, Methyl(4-((7-cyano-2-((4,4-difluoro-4,5,6,7-tetrahydropyrazolo[1,5-a]dpyridin-2-yl)amino)-1-methyl-1H-imidazo[4,5-b]pyridin-6-yl)oxy)pyridin-2-yl)carbamate]", "Kd": "< 0.01"}, {"smiles": "Cn1c(Nc2cc3n(n2)CCCC3(F)F)nc2ncc(Oc3ccnc(NC(=O)N4CCCC4)c3)c(C#N)c21", "note": "[Example I-23, N-(4-((7-cyano-2-((4,4-difluoro-4,5,6,7-tetrahydropyrazolo[1,5-a]pyridin-2-yl)amino)-1-methyl-1H-imidazo[4,5-b]pyridin-6-yl)oxy)pyridin-2-yl)pyrrolidine-1-carboxamide]", "Kd": "< 0.01"}, {"smiles": "CN1CCN(C(=O)Nc2cc(Oc3cnc4nc(Nc5cc6n(n5)CCCC6(F)F)n(C)c4c3C#N)ccn2)CC1", "note": "[Example I-24, N-(4-((7-cyano-2-((4,4-difluoro-4,5,6,7-tetrahydropyrazolo[1,5-a]pyridin-2-yl)amino)-1-methyl-1H-imidazo[4,5-b]pyridin-6-yl)oxy)pyridin-2-yl)-4-methylpiperazine-1-carboxamide]", "Kd": "0.01 to 0.05"}, {"smiles": "Cn1c(Nc2cc3n(n2)CCCC3(F)F)nc2ncc(Oc3ccnc(NC(=O)N4CCOCC4)c3)c(C#N)c21", "note": "[Example I-25, N-(4-((7-cyano-2-((4,4-difluoro-4,5,6,7-tetrahydropyrazolo[1,5-a]pyridin-2-yl)amino)-1-methyl-1H-imidazo[4,5-b]pyridin-6-yl)oxy)pyridin-2-yl)morpholine-4-carboxamide]", "Kd": "0.01 to 0.05"}]}]}
